In US20220089636A1, “TETRAZOLONE SUBSTITUTED STEROIDS AND USE THEREOF” (Beijing Xuanyi PharmaSciences Co., Ltd., priority 2019, published 2022):
Where two headings read alike, the source gives them in different places.

Legend:
[1] = Mouse PK study (i.v. and p.o.); assay type: in vivo; details: plasma, male CD1 mice
Procedure: Test compounds were dosed to male CD1 mice at 5 mg/kg by oral gavage (p.o.) or 1 mg/kg by intravenous injection (i.v.). Blood samples were taken at 0.083, 0.25, 0.5, 1.0, 3.0, 6.0 and 24 hours post i.v. dosing and at 0.25, 0.5, 1.0, 3.0, 6.0 and 24 hours post p.o. dosing. The plasma concentration of compounds were determined by HPLC.

α1β2γ2 GABAA receptor = molecular target: T1, α1β2γ2 GABAA receptor (Homo sapiens, UniProt P14867+P47870); experiment: Patch clamp electrophysiology assay of recombinant α1β2γ2 GABAA receptors (potentiation of 2 μM GABA-evoked Cl- current); assay type: cell-based; details: HEK293T cells stably transfected with α1β2γ2 GABAA; whole cell, 2 μM GABA, -80 mV
T1 construct: expressed in transfected cells
How it was run: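 Whole-cell voltage clamp at −80 mV on HEK293T cells stably expressing human α1β2γ2 GABAA. Compounds applied for 3 min, then 2 μM GABA (EC10–EC20) applied to assess potentiation of Cl− current. Ascending 0.003–10 μM concentrations tested on each cell, 180 s apart, with Rm >500 MΩ, Ra <15 MΩ and leak <100 pA as cell criteria.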

PTZ-treated mice = experiment: Acute PTZ (pentylenetetrazol-induced seizure) assay; assay type: in vivo, Male CD-1 mice; details: 3 mg/kg oral gavage 60 min prior to PTZ 120 mg/kg s.c.; observed 30 min
Procedure: The anticonvulsant effect of test compounds were assessed in the pentylenetetazol-induced seizure assay in mice similar to methods described in Giardina & Gasior (2009) Curr Protoc Pharmacol., Chapter 5. Male CD-1 mice were housed in groups of five under controlled conditions (temperature of 22±2° C. and 12:12 light-dark cycle, lights on at 8:00 am) and water and food were available ad libitum. The mice were housed for 1 week prior to behavioral testing, at which time they weighed 25-35 g. Pentylenetetrazol (PTZ, Sigma) was dissolved in sterile 0.9% saline at a concentration of 12 mg/mL concentration for subcutaneous administration. Test compounds were formulated and administered via oral gavage at 60 minutes prior to PTZ injection. AU solutions were made fresh and were given in a volume of 10 ml/kg body weight.
Mice were acclimated to the test room for at least 30 min before compound administration. Mice were randomized into at least four test groups (vehicle and at least three doses of the test compound) with 10 mice per group. […] Following the drug pretreatment time, the mice were injected s.c. with PTZ (120 mg/kg). Immediately following the PTZ injection, mice were individually placed into observation chambers (25×15×15 cm) and a three-channel timer was started. Each mouse was continuously observed for 30 min and the following behaviors were recorded by observers blinded to the treatments: 1) latency to clonic convulsions that persist for 3 sec and followed by an absence of righting reflex 2) latency to tonic convulsions, characterized by the rigid extension of all four limbs that exceeded a 90 degree angle with the body 3) latency to death 4) number of clonic and tonic convulsions. Data are presented as mean±S.E.M and one-way analysis of variance with Dunnetfs or Bonferroni's post-hoc test was used to detect significant differences in latency and number between the vehicle and dose group, p values<0.05 were regarded as statistically significant.

T1 sequence (P14867 28-456): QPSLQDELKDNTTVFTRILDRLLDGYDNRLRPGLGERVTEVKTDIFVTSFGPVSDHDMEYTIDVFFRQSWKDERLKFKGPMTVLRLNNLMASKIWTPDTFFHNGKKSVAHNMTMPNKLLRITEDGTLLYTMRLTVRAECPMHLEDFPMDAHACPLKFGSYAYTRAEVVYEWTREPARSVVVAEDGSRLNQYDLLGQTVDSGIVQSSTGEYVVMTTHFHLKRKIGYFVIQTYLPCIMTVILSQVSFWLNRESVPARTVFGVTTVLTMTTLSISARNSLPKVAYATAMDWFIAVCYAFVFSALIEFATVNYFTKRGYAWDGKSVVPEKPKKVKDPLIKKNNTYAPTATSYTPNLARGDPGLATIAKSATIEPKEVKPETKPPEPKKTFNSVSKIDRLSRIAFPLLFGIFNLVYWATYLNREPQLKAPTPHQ
T1 sequence (P47870 25-512 limits assumed): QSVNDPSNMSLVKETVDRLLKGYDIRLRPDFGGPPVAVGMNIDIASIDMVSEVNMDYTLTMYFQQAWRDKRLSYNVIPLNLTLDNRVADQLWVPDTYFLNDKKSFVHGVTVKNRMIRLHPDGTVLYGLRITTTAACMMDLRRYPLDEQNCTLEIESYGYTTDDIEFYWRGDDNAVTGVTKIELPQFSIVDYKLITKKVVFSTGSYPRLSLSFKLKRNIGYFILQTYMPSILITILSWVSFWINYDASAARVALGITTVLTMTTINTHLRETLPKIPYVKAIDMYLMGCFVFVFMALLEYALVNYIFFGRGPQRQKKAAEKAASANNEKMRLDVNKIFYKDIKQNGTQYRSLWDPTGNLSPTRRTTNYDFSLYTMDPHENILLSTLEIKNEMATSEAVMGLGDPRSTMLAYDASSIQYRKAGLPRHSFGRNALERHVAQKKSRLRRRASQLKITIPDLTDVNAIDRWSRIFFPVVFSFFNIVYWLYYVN
T1 sequence (P18507 40-475 partner): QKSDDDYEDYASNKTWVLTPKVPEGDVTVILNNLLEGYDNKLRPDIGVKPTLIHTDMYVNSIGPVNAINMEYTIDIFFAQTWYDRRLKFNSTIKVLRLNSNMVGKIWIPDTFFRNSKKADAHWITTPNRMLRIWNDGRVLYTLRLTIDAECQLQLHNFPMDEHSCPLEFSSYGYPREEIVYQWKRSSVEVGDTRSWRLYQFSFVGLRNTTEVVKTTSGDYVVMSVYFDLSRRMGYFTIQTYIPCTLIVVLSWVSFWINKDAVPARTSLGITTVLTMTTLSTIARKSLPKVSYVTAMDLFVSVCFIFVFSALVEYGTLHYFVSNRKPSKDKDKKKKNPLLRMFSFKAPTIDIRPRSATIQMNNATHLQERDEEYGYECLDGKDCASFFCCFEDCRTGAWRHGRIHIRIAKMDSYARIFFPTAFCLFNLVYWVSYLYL

## C[C@@]1(O)CC[C@H]2[C@H](CC[C@@H]3[C@@H]2CC[C@]2(C)[C@@H](C(=O)Cn4nnn(-c5cn[nH]c5)c4=O)CC[C@@H]32)C1 [Example 28, 1-(2-((3R,5R,8R,9R,10S,13S,14S,17S)-3-hydroxy-3,13-dimethylhexadecahydro-1H-cyclopenta[a]phenanthren-17-yl)-2-oxoethyl)-4-(1H-pyrazol-4-yl)-1,4-dihydro-5H-tetrazol-5-one]
[1]; iv, 1 mg/kg i.v.
  clearance: 7.17 mL/min/kg
[1]; iv, 1 mg/kg i.v., read-out: AUClast (hr*ng/mL) i.v.
  AUC(0-t): 2180 ng·h/mL
[1]; iv, 1 mg/kg i.v., read-out: T1/2 (hr) i.v. (converted)
  half-life: 6.12 h
[1]; iv, 1 mg/kg i.v., read-out: Vss
  Vd: 2.9 L/kg
[1]; po, 5 mg/kg p.o.
  Cmax: 563 ng/mL
  Tmax: 6 h
[1]; po, 5 mg/kg p.o. vs 1 mg/kg i.v.
  bioavailability: 77.3%
[1]; po, 5 mg/kg p.o., read-out: AUClast (hr*ng/mL) p.o.
  AUC(0-t): 8420 ng·h/mL
α1β2γ2 GABAA receptor
  EC50: 140 nM
PTZ-treated mice
  Clonic Seizure Latency (sec) (Mean): 573.1 ± 124.9 s
  Clonic Seizure Number (Mean): 1.7 ± 0.3
  Mortality (%): 40%
  Onset of death (sec) (Mean): 1594.7 ± 107.0 s
  Tonic Seizure Latency (sec) (Mean): 1586.3 ± 109.8 s
  Tonic Seizure Number (Mean): 0.4 ± 0.2
